Counter-ions that a name gives are not always drawn. Like-named read-outs stand apart in the source and are kept apart here.
Experiments:
[1] = system: S. aureus MRSA (ATCC 43300); assay: CO-ADD antibacterial assay, growth inhibition (OD600); type: cell-based, Staphylococcus aureus
Procedure: (§1) Dry compounds ranging from 1–2 mg were weighed into properly labeled Eppendorf tubes and sealed with parafilm. The compounds were used as received by the CO-ADD. For the screenings, most compounds were dissolved to a stock concentration of 10 mg/mL in DMSO. K2[Ti(Citrate)3], Na3Citrate, and K2[TiO(Oxalate)2] were dissolved in warm water. […] Samples were diluted in water to a final testing concentration of 32 µg/mL while keeping the final co-solvent concentration to a maximum of 0.5%. Where applicable, compounds were serially diluted 1:2 fold eight times. Each sample concentration was prepared in 384-well plates, non-binding surface plate (NBS; Corning 3640) for each bacterial/fungal strain, tissue-culture treated (TC-treated; Corning 3712/3764), black for mammalian cell types and polypropylene 384-well (PP; Corning 3657) for hemolysis assays, all in duplicate (n = 2), and keeping the final DMSO concentration to a maximum of 0.5%. All sample preparation was conducted using liquid handling robots.
(§2) For the bacterial assays, four Gram-negative bacteria (E. coli (ATCC 25922, Manassas, VA, USA); K. pneumoniae (ATCC 700603), A. baumannii; (ATCC 19606), and P. aeruginosa (ATCC 27853) and the Gram-positive bacteria (S. aureus MRSA (ATCC 43300) were used. Each strain was cultured in cation-adjusted Mueller Hinton broth (CAMHB; Bacto Laboratories 212322, Mount Pritchard, Australia) at 37 °C overnight. A sample of each culture was then diluted 40-fold in fresh CAMHB and incubated at 37 °C for 1.5–3 h. The resultant mid-log phase cultures were diluted with CAMHB (CFU/mL measured by OD600), then added to each well of the compound-containing plates (384-well non-binding surface (NBS) plates; Corning CLS3640, Millipore Sigma, Burlington, MA, USA), giving a cell density of 5 × 10^5 CFU/mL and a total volume of 50 µL. Plates were covered and incubated at 37 °C for 18 h without shaking. Inhibition of bacterial growth was determined by measuring absorbance at 600 nm (OD600) with a Tecan M1000 Pro monochromator plate reader, using media-only as negative control and bacteria without inhibitors as a positive control. […] Colistin sulfate (Sigma C4461) and vancomycin HCl (Sigma 861987) were used as internal controls on each plate for Gram-negative and Gram-positive bacteria, respectively.

[2] = system: A. baumannii (ATCC 19606); assay: as above; type: cell-based, Acinetobacter baumannii; details: up to 32 μg/mL
Procedure: as §1, §2

E. coli (ATCC 25922) = assay: as above; type: cell-based, Escherichia coli; details: up to 32 μg/mL
Procedure: as §1, §2

[3] = system: K. pneumoniae (ATCC 700603); assay: as above; type: cell-based, Klebsiella pneumoniae; details: up to 32 μg/mL
Procedure: as §1, §2

[4] = system: P. aeruginosa (ATCC 27853); assay: as above; type: cell-based, Pseudomonas aeruginosa; details: up to 32 μg/mL
Procedure: as §1, §2

C. albicans (ATCC 90028) = assay: CO-ADD antifungal assay, growth inhibition (OD630); type: cell-based, Candida albicans; details: up to 32 μg/mL
Procedure: (§3) The compounds were used as received by the CO-ADD. For the screenings, most compounds were dissolved to a stock concentration of 10 mg/mL in DMSO. K2[Ti(Citrate)3], Na3Citrate, and K2[TiO(Oxalate)2] were dissolved in warm water. [Cu(Deferasirox)(H2O)]2 was dissolved in pyridine after its solubility was determined to be excellent in pyridine due to coordination of the solvent to the metal producing [Cu(Deferasirox)(pyridine)]2 in situ. […] Each sample concentration was prepared in 384-well plates, non-binding surface plate (NBS; Corning 3640) for each bacterial/fungal strain, tissue-culture treated (TC-treated; Corning 3712/3764), black for mammalian cell types and polypropylene 384-well (PP; […] All sample preparation was conducted using liquid handling robots. For the fungal assays, the fungi (C. albicans (ATCC 90028) and C. neoformans) (ATCC 208821) were used. Both fungi (yeast) strains were cultured for 3 days on Yeast Extract-Peptone Dextrose (YPD; Becton Dickinson 242720, Thermo Fisher Scientific, Waltham, MA, USA) agar at 30 °C. A yeast suspension of 1 × 10^6 to 5 × 10^6 CFU/mL (as determined by OD530) was prepared from five colonies from the agar plates, subsequently diluted with Yeast Nitrogen Base media (YNB; Becton Dickinson 233520, Thermo Fisher Scientific, Waltham, MA, USA), and added to each well of the compound-containing plates (384-well plates, NBS; Corning CLS3640) giving a final cell density of 2.5 × 10^3 CFU/mL and a total volume of 50 μL. Plates were covered and incubated at 35 °C for 36 h without shaking. […] Sigma R7017) and incubation at 35 °C for 2 h, using media-only as a negative control and fungi without inhibitors as a positive control. […] Fluconazole (Sigma F8929) was used as an internal control on each plate for both strains.

[5] = system: C. neoformans (ATCC 208821); assay: CO-ADD antifungal assay, growth inhibition (resazurin, OD600-570); type: cell-based, Cryptococcus neoformans; details: up to 32 μg/mL
Procedure: as §3

[6] = system: HEK293 ATCC CRL-1573 human embryonic kidney cells; assay: CO-ADD cytotoxicity assay (resazurin); type: cell-based; details: at the maximum concentration tested
Procedure: The compounds were used as received by the CO-ADD. For the screenings, most compounds were dissolved to a stock concentration of 10 mg/mL in DMSO. K2[Ti(Citrate)3], Na3Citrate, and K2[TiO(Oxalate)2] were dissolved in warm water. [Cu(Deferasirox)(H2O)]2 was dissolved in pyridine after its solubility was determined to be excellent in pyridine due to coordination of the solvent to the metal producing [Cu(Deferasirox)(pyridine)]2 in situ. […] Each sample concentration was prepared in 384-well plates, non-binding surface plate (NBS; Corning 3640) for each bacterial/fungal strain, tissue-culture treated (TC-treated; Corning 3712/3764), black for mammalian cell types and polypropylene 384-well (PP; […] All sample preparation was conducted using liquid handling robots. HEK293 ATCC CRL-1573 human embryonic kidney cells were counted manually in a Neubauer hemocytometer and added to compound-containing plates (384-well plates, tissue culture-treated (TC); […] Life Technologies 11995-073) with 10% FBS (GE SH30084.03).

MRC-5 cells [7] = details: cited from earlier work
MRC-5 cells [8] = assay: MRC-5 cell viability, dose-response treatment, MTT assay; type: cell-based, human; details: MRC-5 cells, MTT, 72 h, pH 7.4, n = 6, this work
Procedure: A thawed stock of MRC-5 cells was washed with 1X PBS and resuspended in phenol red DMEM media (supplemented with 10% FBS and 1% of penicillin-streptomycin) and then seeded in a 100 mm × 20 mm (complete, O.D. x H) petri dish and grown in a 5% (v/v) CO2 humidified atmosphere at 37 °C. At least three passages were performed to ensure the integrity of the cells. After this point, cells were collected, thoroughly washed with 1X PBS, and then resuspended in phenol red-free DMEM (supplemented with 10% FBS, 1% Streptomycin/Penicillin, and 2.4 mM L-glutamine) at a 2.0 × 10^5 cells/mL concentration. Approximately 100 µL of the cell solution was seeded into wells of several 96-well plates to begin the MTT assay, which was performed in the 5% (v/v) CO2 humidified atmosphere at 37 °C. At least one lane of wells in each plate was supplied media without cells as a control. […] Most of the compounds were dissolved in 1X PBS buffer at pH 7.4. […] Titanocene dichloride was prepared as a fresh stock solution in DMSO and then diluted in 0.1 M NaCl (aq) instead of 1X PBS (to minimize hydrolysis induced precipitation) to the desired concentration while maintaining a constant 1% (v/v) DMSO background (0.5% DMSO after mixing with the well media). A control of cells treated with media containing 1% (v/v) DMSO was included in the study. The titanocene solutions were used within an hour of preparation in the final cell solution. […] At 3 h before a total of 72 h of incubation with the compounds, the cells were treated with 25 µL of 9 mg/mL MTT prepared in 1X PBS and sterile-filtered. Upon completion of the three hours, 50 µL of 10% (w/v) SDS (prepared in 0.1 M Tris buffer at pH 11) was added to solubilize the purple formazan product crystals and left overnight in the incubator. Control wells in the plates consisted of: (1) Untreated cells + MTT as the measure of 100% viable cell growth in the media and (2) Media with no cells + MTT as the measure of zero cells in the media. Two sets of compounds could be tested per plate. The plates were read at the wavelength of 570 nm (absorbance of the formazan product at pH 10.0) and 800 nm (background control) using a Tecan plate reader. The absorbance of all wells was compared to the absorbance of the untreated cells with the MTT set as the 100% viable cell standard and the absorbance of the zero cell control set as the 0% viable cell standard. […] Nonlinear regression in Origin 8.5 was utilized to fit the growth curves using the pharmacology dose–response equation to determine the half-maximal inhibitory concentration (IC50) and the corresponding standard deviation. All samples were tested six times.

[9] = cited from earlier work
[10] = predicted or measured MIC, lowest concentration with ≥75% growth inhibition, 0.25-32 μg/mL, 18 h
[11] = predicted or measured MIC, ≥75% growth inhibition
[12] = predicted or measured MIC, ≥75% growth inhibition, 36 h

Compound	MIC S. aureus (MRSA) [1, 10]	Dmax S. aureus (MRSA), maximum % inhibition ([1]; up to 32 μg/mL)	MIC A. baumannii [2, 11]	Dmax A. baumannii, maximum % inhibition [2]	MIC E. coli (E. coli (ATCC 25922); [11])	Dmax E. coli, maximum % inhibition (E. coli (ATCC 25922))	MIC K. pneumoniae [3, 11]	Dmax K. pneumoniae, maximum % inhibition [3]	MIC P. aeruginosa [4, 11]	Dmax P. aeruginosa, maximum % inhibition [4]	MIC C. albicans (C. albicans (ATCC 90028); [12])	Dmax C. albicans, maximum % inhibition (C. albicans (ATCC 90028))	MIC C. neoformans [5, 12]	Dmax C. neoformans, maximum % inhibition [5]	other results
O=C(O)CN(CCN(CC(=O)O)Cc1ccccc1O)Cc1ccccc1O [Compound 5, N,N′-di(o-hydroxybenzyl)ethylenediamine-N,N′-diacetic acid monohydrochloride hydrate, reference compound]															MIC ([1]; Staphylococcus aureus, predicted or measured MIC, lowest concentration with ≥75% growth inhibition, 0.25-32 μg/mL, 18 h): > 32 µg/mL; Dmax ([1]; Staphylococcus aureus, up to 32 μg/mL, read-out: Dmax S. aureus (MRSA), maximum % inhibition): 24.3%; MIC ([2]; Acinetobacter baumannii, ATCC19606, predicted or measured MIC, ≥75% growth inhibition): > 32 µg/mL; Dmax ([2]; Acinetobacter baumannii, ATCC19606, read-out: Dmax A. baumannii, maximum % inhibition): 68.3%; MIC (E. coli (ATCC 25922); Escherichia coli, ATCC25922, predicted or measured MIC, ≥75% growth inhibition): > 32 µg/mL; Dmax (E. coli (ATCC 25922); Escherichia coli, ATCC25922, read-out: Dmax E. coli, maximum % inhibition): 51.6%; MIC ([3]; Klebsiella pneumoniae, ATCC700603, predicted or measured MIC, ≥75% growth inhibition): > 32 µg/mL; Dmax ([3]; Klebsiella pneumoniae, ATCC700603, read-out: Dmax K. pneumoniae, maximum % inhibition): 52.9%; MIC ([4]; Pseudomonas aeruginosa, ATCC27853, predicted or measured MIC, ≥75% growth inhibition): > 32 µg/mL; Dmax ([4]; Pseudomonas aeruginosa, ATCC27853, read-out: Dmax P. aeruginosa, maximum % inhibition): 69%; MIC (C. albicans (ATCC 90028); Candida albicans, ATCC90028, predicted or measured MIC, ≥75% growth inhibition, 36 h): > 32 µg/mL; Dmax (C. albicans (ATCC 90028); Candida albicans, ATCC90028, read-out: Dmax C. albicans, maximum % inhibition): 3.5%; MIC ([5]; Cryptococcus neoformans, ATCC208821, predicted or measured MIC, ≥75% growth inhibition, 36 h): > 32 µg/mL; Dmax ([5]; Cryptococcus neoformans, ATCC208821, read-out: Dmax C. neoformans, maximum % inhibition): -17.5%; inhibition of HEK293 cell proliferation [6]: ~50%; IC50 ± SD (µg/mL) (MRC-5 cells [7]): >>44.3 µg/mL; IC50 (MRC-5 cells [7]; read-out: IC50 ± SD): > 100 µM
[Cl-].[Cl-].[Ti+4].c1cc[cH-]c1.c1cc[cH-]c1 [Compound 13, Bis(cyclopentadienyl)titanium(IV) dichloride, reference compound]	>32 µg/mL	51.55%	>32 µg/mL	15.78%	>32 µg/mL	23.76%	>32 µg/mL	16.65%	>32 µg/mL	16.01%	>32 µg/mL	16.15%	>32 µg/mL	6.5%	IC50 ± SD (µg/mL) (MRC-5 cells [8]): >>24.9 µg/mL; IC50 (MRC-5 cells [8]; read-out: IC50 ± SD): > 100 µM; solution stability (in words) ([9]; pH 7.4): extremely hydrolysis prone
Ti(BHPT)2 [Compound 9]	>32 µg/mL	7.82%	>32 µg/mL	1.55%	>32 µg/mL	−0.56%	>32 µg/mL	6.35%	>32 µg/mL	10.27%	>32 µg/mL	4.27%	>32 µg/mL	−1.7%	activity against MRSA (in words) ([1]; CO-ADD screen, 32 μg/mL): inactive; IC50 (MRC-5 cells [7]; approximated relative IC50, compound inhibits proliferation at a maximum of 25%, read-out: IC50 (µM), approximated relative IC50): ~2.4 µM; IC50 (µg/mL), approximated relative IC50 (MRC-5 cells [7]; approximated relative IC50, compound inhibits proliferation at a maximum of 25%): ~1.5 µg/mL; solution stability (in words) ([9]; pH 4): highly stable in solution
